Patent publication US8026069B2, “Process for identification of compounds for modulating the activity of sodium/calcium exchange transporter” (Sanofi-Aventis Deutschland GmbH, priority 2004, dated 2011)

Biological target: T1, NCX1-containing HEK membrane fragments (human cardiac sodium calcium exchanger NCX-1) (Homo sapiens, UniProt P32418)
T1 construct: expressed in transfected cells; host or cells: HEK-293 (Flp-In T-Rex-293-NCX1, DSM ACC2670), doxycycline-induced; membrane fragments
Assay: cell free electrophysiological sensor chip (SurfE2R) NCX assay, current on Ca2+ concentration jump
Format: biochemical
Conditions: 5 mM
Protocol: 10-30 μl, for example, of NCX-containing membrane fragments were applied and circulated on the sensor chip and preferably incubated for at least 12 hours at 4° C. In preferred cases of experiments the NCX protein is a human NCX1 protein. The capacitance of the protein-loaded sensor chip was preferably around 100 nF cm^−2 and the conductance G1s preferably around 10 nS cm^−2. The principal of the assay is to test the electrical activity of NCX protein in the absence of the inhibitor and afterwards in the presence of the inhibitor. For this reason the NCX-sensor chip is rinsed with a sequence of solutions, which activate NCX. In general, there is the possibility to test whether an inhibitor is reversible. In this case after the inhibitor application the solutions are changed back to inhibitor-free conditions. Before the experiment the solution reservoirs of the chip are filled with the following preferred solutions: washing buffer: 40 mM KCl, 100 mM NaCl, 4 mM MgCl2, 30 mM HEPES/NMG pH 7.4; non-activating solution: 140 mM KCl, 4 mM MgCl2, 30 mM HEPES/NMG pH 7.4; activating solution: 140 mM KCl, 4 mM MgCl2, 30 mM HEPES/NMG pH 7.4, 0.5 mM CaCl2. […]
For the determination of its activity, the NCX protein was treated consecutively with a washing, non-activating and activating solution and the electrical current was measured when changing from […] to activating treatment. […]

In the case of `[Ni+2]` [Ni^2+], the “effect on NCX current in control experiments” value is reported as “diminished”.
